{
  "source": "patent US20110014164A1",
  "about": "“EFFICIENT INDUCTION OF PLURIPOTENT STEM CELLS USING SMALL MOLECULE COMPOUNDS” (PRESIDENT AND FELLOWS OF HARVARD COLLEGE, priority 2008, published 2011)",
  "experiment": "Effect of VPA treatment on cell cycles",
  "type": "cell-based",
  "text": "Therefore, VPA partially reprograms MEFs towards more ES cell-like.",
  "data": [
    {"molecule": "CCCC(CCC)C(=O)O", "note": "[VPA, valproic acid]", "values": [
      {"measurement": "effect on cell cycles", "value": "does not accelerate cell cycles"}
    ]}
  ]
}
